Legend:
mTOR (FRAP1) = target: T1, mTOR (FRAP1) (Homo sapiens, UniProt P42345); assay: mTOR biochemical assay (LanthaScreen)
T1 construct: purchased ThermoFisher PV4753

[1] = test system: TRF1 foci in CHA-9.3 mouse lung tumor cell line; assay: TRF1 foci immunofluorescence in CHA-9.3 cells; assay type: cell-based; settings: for Inhibition of TRF1 foci (in words): 10 μM (GSK-2126458 1.0 μM), 24 h, CHA-9.3; for TRF1 levels as compared to bortezomib/DMSO-treated control cells: 10 μM plus bortezomib 50 nM, CHA 9-3
B-RAF-V600E = target: T2, B-RAF-V600E (Homo sapiens, UniProt P15056, V600E); assay: ProQinase kinase panel; assay type: biochemical; settings: read-out: Inh (%) at 1µM, B-RAF-V600E
T2 construct: purchased ProQinase
Description: (§1) Supplementary Table 1: Kinase selectivity profile of ETP-47037 and ETP-47228 at 1 µM. Selectivity against protein kinases was determined from evaluation of compounds at 1µM in ProQinase’s 24 selected panel that represents the ACG, STE, TKL, TK, CMGC CAMK and CK1 kinase families.

CHK1 = target: T3, CHK1 (Homo sapiens, UniProt O14757); assay: ProQinase kinase panel; assay type: biochemical; settings: read-out: Inh (%) at 1µM, CHK1
T3 construct: purchased ProQinase
Description: as §1

CHK2 = target: T4, CHK2 (Homo sapiens, UniProt O96017); assay: ProQinase kinase panel; assay type: biochemical; settings: read-out: Inh (%) at 1µM, CHK2
T4 construct: purchased ProQinase
Description: as §1

CK1-alpha1 = target: T5, CK1-alpha1 (Homo sapiens, UniProt P48729); assay: ProQinase kinase panel; assay type: biochemical; settings: read-out: Inh (%) at 1µM, CK1-alpha1
T5 construct: purchased ProQinase
Description: as §1

DYRK1A = target: T6, DYRK1A (Homo sapiens, UniProt Q13627); assay: ProQinase kinase panel; assay type: biochemical; settings: read-out: Inh (%) at 1µM, DYRK1A
T6 construct: purchased ProQinase
Description: as §1

EGF-R = target: T7, EGF-R (Homo sapiens, UniProt P00533); assay: ProQinase kinase panel; assay type: biochemical; settings: read-out: Inh (%) at 1µM, EGF-R
T7 construct: purchased ProQinase
Description: as §1

FAK = target: T8, FAK (Homo sapiens, UniProt Q05397); assay: ProQinase kinase panel; assay type: biochemical; settings: read-out: Inh (%) at 1µM, FAK
T8 construct: purchased ProQinase
Description: as §1

FGF-R1 = target: T9, FGF-R1 (Homo sapiens, UniProt P11362); assay: ProQinase kinase panel; assay type: biochemical; settings: read-out: Inh (%) at 1µM, FGF-R1
T9 construct: purchased ProQinase
Description: as §1

IGF1-R = target: T10, IGF1-R (Homo sapiens, UniProt P08069); assay: ProQinase kinase panel; assay type: biochemical; settings: read-out: Inh (%) at 1µM, IGF1-R
T10 construct: purchased ProQinase
Description: as §1

IKK-beta = target: T11, IKK-beta (Homo sapiens, UniProt O14920); assay: ProQinase kinase panel; assay type: biochemical; settings: read-out: Inh (%) at 1µM, IKK-beta
T11 construct: purchased ProQinase
Description: as §1

INS-R = target: T12, INS-R (Homo sapiens, UniProt P06213); assay: ProQinase kinase panel; assay type: biochemical; settings: read-out: Inh (%) at 1µM, INS-R
T12 construct: purchased ProQinase
Description: as §1

JAK2 = target: T13, JAK2 (Homo sapiens, UniProt O60674); assay: ProQinase kinase panel; assay type: biochemical; settings: read-out: Inh (%) at 1µM, JAK2
T13 construct: purchased ProQinase
Description: as §1

MET = target: T14, MET (Homo sapiens, UniProt P08581); assay: ProQinase kinase panel; assay type: biochemical; settings: read-out: Inh (%) at 1µM, MET
T14 construct: purchased ProQinase
Description: as §1

PDK1 = target: T15, PDK1 (Homo sapiens, UniProt O15530); assay: ProQinase kinase panel; assay type: biochemical; settings: read-out: Inh (%) at 1µM, PDK1
T15 construct: purchased ProQinase
Description: as §1

RPS6KA1 = target: T16, RPS6KA1 (Homo sapiens, UniProt Q15418); assay: ProQinase kinase panel; assay type: biochemical; settings: read-out: Inh (%) at 1µM, RPS6KA1
T16 construct: purchased ProQinase
Description: as §1

SGK1 = target: T17, SGK1 (Homo sapiens, UniProt O00141); assay: ProQinase kinase panel; assay type: biochemical; settings: read-out: Inh (%) at 1µM, SGK1
T17 construct: purchased ProQinase
Description: as §1

SRC = target: T18, SRC (Homo sapiens, UniProt P12931); assay: ProQinase kinase panel; assay type: biochemical; settings: read-out: Inh (%) at 1µM, SRC
T18 construct: purchased ProQinase
Description: as §1

VEGF-R2 = target: T19, VEGF-R2 (Homo sapiens, UniProt P35968); assay: ProQinase kinase panel; assay type: biochemical; settings: read-out: Inh (%) at 1µM, VEGF-R2
T19 construct: purchased ProQinase
Description: as §1

[2] = test system: TRF1 foci in p53−/− mouse embryo fibroblasts (MEF); assay: TRF1 foci immunofluorescence in p53−/− MEFs; assay type: cell-based; settings: 10 μM, 24 h
Description: We then checked whether PI3Kα/AKT inhibition also leads to decreased TRF1 foci in an additional cell type to CHA-9.3 cells. Thus, we used p53 ^−/− mouse embryo fibroblasts (MEF). We treated these MEFs either with the AKT inhibitor MK-2206 or with ETP-47037 at 10 μM concentration for 24 h and analyzed TRF1 foci by immunofluorescence.
TRF1 immunofluorescence of TRF1 was performed in lung tumor-derived cell line (CHA9.3) and in MEFs[39]. A rat monoclonal antibody against mouse TRF1 developed by the Monoclonal antibody unit at CNIO was used to detect endogenous TRF1 (1:500). GFP-TRF1 fluorescence was directly measured in cells fixed in paraformaldehyde. For quantification of TRF1 foci intensity, pictures of fixed cells were automatically acquired from each well by the Opera HCS system (Perkin Elmer). Sixty images of random fields per well, with a 40× magnification lens, were taken under non-saturating conditions. At least 1 × 10^3 cells were analyzed for each well. Briefly, images were segmented using the DAPI staining to generate masks matching cell nuclei from which-TRF1 foci were analyzed.

T19 sequence (P35968 20-1356): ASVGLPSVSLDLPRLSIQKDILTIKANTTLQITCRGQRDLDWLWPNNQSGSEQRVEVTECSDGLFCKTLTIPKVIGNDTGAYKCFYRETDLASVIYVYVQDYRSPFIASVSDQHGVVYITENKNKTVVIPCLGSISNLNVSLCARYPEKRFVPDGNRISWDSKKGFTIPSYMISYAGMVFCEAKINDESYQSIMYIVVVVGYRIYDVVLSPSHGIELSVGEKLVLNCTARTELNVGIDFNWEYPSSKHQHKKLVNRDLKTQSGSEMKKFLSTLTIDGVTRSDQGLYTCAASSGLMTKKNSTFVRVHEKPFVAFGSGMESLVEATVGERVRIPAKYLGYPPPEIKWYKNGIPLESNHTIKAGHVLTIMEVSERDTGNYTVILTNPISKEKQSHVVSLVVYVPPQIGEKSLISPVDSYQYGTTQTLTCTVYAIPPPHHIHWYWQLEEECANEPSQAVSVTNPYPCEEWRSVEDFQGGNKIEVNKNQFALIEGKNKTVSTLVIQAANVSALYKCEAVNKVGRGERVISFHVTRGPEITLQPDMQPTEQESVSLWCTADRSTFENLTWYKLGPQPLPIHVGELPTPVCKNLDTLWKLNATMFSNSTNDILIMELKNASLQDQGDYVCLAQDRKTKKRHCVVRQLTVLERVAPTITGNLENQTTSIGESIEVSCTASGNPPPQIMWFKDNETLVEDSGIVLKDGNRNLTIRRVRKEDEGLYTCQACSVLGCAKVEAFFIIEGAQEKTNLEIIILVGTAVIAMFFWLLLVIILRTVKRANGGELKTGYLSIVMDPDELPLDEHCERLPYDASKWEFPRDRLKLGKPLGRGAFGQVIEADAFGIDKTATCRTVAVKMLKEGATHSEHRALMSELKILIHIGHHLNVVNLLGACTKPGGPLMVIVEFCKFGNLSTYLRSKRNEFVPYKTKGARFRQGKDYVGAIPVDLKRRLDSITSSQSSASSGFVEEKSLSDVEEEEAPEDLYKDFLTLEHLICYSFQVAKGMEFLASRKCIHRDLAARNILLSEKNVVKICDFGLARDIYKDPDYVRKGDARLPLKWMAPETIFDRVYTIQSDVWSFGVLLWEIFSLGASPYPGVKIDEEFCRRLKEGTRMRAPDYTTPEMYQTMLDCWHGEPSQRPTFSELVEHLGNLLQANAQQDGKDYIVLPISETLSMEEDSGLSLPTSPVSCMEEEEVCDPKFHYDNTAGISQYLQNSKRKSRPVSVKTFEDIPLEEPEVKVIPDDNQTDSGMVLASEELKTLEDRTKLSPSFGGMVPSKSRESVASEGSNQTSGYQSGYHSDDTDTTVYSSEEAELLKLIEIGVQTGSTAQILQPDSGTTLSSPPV
T11 sequence (O14920 whole entry): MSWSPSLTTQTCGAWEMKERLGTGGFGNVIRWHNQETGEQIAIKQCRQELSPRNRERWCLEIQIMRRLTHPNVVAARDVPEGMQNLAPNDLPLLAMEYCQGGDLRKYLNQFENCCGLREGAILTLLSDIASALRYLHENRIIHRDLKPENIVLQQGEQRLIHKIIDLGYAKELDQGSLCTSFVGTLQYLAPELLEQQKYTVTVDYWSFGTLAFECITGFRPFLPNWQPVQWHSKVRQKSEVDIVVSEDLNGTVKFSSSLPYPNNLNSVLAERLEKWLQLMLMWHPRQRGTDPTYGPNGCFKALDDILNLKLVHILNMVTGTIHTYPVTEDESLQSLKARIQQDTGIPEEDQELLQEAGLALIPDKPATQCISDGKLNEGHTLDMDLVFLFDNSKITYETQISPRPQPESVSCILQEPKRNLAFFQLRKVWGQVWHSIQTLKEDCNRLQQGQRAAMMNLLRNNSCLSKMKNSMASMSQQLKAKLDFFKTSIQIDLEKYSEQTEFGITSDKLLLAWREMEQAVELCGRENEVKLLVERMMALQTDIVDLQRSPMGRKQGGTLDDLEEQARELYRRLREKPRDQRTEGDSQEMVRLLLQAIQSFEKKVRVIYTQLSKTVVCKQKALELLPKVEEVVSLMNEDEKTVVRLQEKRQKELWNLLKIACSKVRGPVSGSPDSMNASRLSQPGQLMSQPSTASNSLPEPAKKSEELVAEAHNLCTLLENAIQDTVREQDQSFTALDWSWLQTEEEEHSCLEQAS
T1 sequence (P42345 1360-2549 limits assumed): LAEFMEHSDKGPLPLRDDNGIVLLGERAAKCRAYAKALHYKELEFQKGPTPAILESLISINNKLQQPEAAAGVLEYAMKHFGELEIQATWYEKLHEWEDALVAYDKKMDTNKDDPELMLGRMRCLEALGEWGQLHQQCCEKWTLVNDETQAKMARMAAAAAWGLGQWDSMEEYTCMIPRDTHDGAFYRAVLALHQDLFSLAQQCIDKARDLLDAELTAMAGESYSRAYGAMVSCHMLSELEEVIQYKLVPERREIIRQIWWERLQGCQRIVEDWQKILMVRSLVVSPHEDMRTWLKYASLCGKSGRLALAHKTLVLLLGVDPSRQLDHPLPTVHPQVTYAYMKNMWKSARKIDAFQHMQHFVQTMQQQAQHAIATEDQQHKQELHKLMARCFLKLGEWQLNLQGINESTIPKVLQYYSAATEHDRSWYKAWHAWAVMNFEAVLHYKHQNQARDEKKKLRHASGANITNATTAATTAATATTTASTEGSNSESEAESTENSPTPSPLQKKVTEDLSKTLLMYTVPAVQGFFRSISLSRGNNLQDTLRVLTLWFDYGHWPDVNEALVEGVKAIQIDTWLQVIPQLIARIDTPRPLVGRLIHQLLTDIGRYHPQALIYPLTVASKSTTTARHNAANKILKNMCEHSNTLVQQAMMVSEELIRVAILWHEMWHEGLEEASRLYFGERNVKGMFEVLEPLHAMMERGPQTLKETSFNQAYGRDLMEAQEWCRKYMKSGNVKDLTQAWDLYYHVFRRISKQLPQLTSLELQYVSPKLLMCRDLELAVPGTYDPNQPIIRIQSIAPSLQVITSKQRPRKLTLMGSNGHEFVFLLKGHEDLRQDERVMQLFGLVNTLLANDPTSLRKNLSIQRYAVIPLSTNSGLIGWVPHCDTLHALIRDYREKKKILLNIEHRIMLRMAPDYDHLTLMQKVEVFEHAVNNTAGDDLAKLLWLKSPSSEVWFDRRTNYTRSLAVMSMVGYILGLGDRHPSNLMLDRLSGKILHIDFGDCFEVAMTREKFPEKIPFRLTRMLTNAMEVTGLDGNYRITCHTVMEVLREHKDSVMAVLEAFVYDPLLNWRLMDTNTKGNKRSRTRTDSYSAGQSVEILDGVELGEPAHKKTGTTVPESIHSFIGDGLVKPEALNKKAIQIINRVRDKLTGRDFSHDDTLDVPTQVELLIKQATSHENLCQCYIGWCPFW
T16 sequence (Q15418 whole entry): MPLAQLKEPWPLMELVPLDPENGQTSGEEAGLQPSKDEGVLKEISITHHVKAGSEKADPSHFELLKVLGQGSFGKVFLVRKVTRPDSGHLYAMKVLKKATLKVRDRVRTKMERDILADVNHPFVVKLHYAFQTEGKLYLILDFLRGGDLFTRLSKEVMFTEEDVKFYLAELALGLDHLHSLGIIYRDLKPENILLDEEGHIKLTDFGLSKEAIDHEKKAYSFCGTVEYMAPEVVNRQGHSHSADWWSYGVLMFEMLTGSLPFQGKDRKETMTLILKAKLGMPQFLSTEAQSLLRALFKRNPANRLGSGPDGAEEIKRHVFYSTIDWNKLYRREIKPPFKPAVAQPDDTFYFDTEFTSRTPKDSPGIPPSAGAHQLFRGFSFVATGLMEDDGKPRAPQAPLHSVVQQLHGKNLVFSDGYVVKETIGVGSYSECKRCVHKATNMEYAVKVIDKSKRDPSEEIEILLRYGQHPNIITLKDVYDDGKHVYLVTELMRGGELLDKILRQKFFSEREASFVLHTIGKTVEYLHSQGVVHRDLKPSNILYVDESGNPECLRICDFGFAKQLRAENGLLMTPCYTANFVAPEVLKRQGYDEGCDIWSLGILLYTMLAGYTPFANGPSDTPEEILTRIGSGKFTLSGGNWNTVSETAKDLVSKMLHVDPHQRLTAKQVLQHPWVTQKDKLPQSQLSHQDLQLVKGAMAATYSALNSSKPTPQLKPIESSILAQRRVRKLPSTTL
T15 sequence (O15530 whole entry): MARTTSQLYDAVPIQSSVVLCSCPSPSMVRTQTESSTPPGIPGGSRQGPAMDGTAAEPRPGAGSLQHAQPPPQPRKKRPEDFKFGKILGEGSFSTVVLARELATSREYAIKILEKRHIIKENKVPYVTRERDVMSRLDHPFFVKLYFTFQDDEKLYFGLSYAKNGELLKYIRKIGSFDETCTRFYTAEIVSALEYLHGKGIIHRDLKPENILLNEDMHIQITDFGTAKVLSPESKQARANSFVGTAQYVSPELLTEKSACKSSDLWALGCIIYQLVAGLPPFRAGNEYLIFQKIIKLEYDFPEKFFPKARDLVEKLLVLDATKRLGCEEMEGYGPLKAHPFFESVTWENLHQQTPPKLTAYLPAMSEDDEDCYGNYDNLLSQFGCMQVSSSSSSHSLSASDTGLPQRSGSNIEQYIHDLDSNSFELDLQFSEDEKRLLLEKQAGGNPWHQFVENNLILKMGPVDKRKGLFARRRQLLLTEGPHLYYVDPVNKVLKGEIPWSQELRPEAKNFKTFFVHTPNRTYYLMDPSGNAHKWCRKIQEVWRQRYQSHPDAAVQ
T12 sequence (P06213 980-1382 limits assumed): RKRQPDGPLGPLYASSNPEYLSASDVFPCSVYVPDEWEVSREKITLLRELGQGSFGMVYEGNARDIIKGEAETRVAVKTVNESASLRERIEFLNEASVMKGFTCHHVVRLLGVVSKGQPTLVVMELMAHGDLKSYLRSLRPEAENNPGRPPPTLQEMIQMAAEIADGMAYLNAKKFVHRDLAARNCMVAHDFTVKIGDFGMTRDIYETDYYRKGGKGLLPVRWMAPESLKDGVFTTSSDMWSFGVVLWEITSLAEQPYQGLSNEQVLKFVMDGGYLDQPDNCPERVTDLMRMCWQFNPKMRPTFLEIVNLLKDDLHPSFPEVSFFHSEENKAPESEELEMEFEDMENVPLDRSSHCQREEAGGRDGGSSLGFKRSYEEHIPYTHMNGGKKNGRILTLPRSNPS

| SMILES | Inhibition of TRF1 foci (in words) [1] | TRF1 levels as compared to bortezomib/DMSO-treated control cells [1] | inhibition at 1 µM (B-RAF-V600E) | inhibition at 1 µM (CHK1) | inhibition at 1 µM (CHK2) | inhibition at 1 µM (CK1-alpha1) | inhibition at 1 µM (DYRK1A) | inhibition at 1 µM (EGF-R) | inhibition at 1 µM (FAK) | inhibition at 1 µM (FGF-R1) | inhibition at 1 µM (IGF1-R) | inhibition at 1 µM (IKK-beta) | inhibition at 1 µM (INS-R) | inhibition at 1 µM (JAK2) | inhibition at 1 µM (MET) | inhibition at 1 µM (PDK1) | inhibition at 1 µM (RPS6KA1) | inhibition at 1 µM (SGK1) | inhibition at 1 µM (SRC) | inhibition at 1 µM (VEGF-R2) | also measured |
| --- | --- | --- | --- | --- | --- | --- | --- | --- | --- | --- | --- | --- | --- | --- | --- | --- | --- | --- | --- | --- | --- |
| Cc1cnc2c(N3CCOCC3)nc(-c3ccc(NC(=O)Nc4ccc(C(=O)N5CCN(C)CC5)cc4)cc3)cn12 [ETP-47228] | efficient inhibition of TRF1 foci | significantly lower | 11.5% | -11.5% | 3% | 2% | 4% | 0.5% | -7.5% | -3.5% | -19% | -10% | -3% | 4% | 3% | -9% | -1.5% | 0.5% | 5% | -3% | IC50 (mTOR (FRAP1); internal data): 443 nM |
| CS(=O)(=O)N1CCN(Cc2cc3c(N4CCOCC4)nc(-c4cnc(N)nc4)cn3n2)CC1 [ETP-47037] | efficient inhibition of TRF1 foci | significantly lower | 6.5% | 15.5% | 0.5% | -6% | -1% | 22.5% | 14.5% | 6.5% | 2% | 1% | 5% | 2% | 3% | 7% | -4.5% | 0.5% | 26% | 21.5% | IC50 (mTOR (FRAP1); as given in the text): 1700 nM; Reduction in TRF1 foci intensity [2]: 34% |
